Reference: US5935932A, “Bradykinin antagonists containing pentafluorophenylalanine” (University Technology Corporation, priority 1998, dated 1999)
Like-named read-outs stand apart in the source and are kept apart here. Where a SMILES comes first, the peptide text is derived from it. [ ]: non-standard residue; d: D form. dPhe(F5) = N[C@H](Cc1c(F)c(F)c(F)c(F)c1F)C(=O)O; Igl = N[C@H](C(=O)O)C1Cc2ccccc2C1; Hyp = O=C(O)[C@@H]1C[C@@H](O)CN1; 2Thi = N[C@@H](Cc1cccs1)C(=O)O

Key:
[1] = biological target: T1, bradykinin receptors in Rat Uterus (Rattus norvegicus, UniProt P25023); experiment: Rat Uterus functional assay; assay type: cell-based
T1 construct: describes the Rat Uterus assay used to analyze the present compounds; from tissue; host or cells: isolated rat uterus
T1 sequence (P25023 1-396): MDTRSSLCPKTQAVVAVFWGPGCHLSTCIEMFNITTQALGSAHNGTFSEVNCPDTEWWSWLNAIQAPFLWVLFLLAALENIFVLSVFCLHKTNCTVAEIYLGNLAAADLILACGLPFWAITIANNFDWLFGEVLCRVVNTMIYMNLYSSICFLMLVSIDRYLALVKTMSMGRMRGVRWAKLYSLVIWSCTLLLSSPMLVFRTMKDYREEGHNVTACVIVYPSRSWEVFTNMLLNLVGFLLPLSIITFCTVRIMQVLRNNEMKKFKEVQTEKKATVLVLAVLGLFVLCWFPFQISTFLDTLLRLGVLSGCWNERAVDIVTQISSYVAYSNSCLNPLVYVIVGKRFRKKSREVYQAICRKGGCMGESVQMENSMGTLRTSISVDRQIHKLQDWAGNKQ
Excerpt: 4. Rat Uterus functional assay Trautshold, Handbook of Expt. Pharmacol. […] The Trautshold method was used without changes to the parameters. U.S. Pat. No. 4,693,993, at Column 14, line 10 gives a general description of data analysis for this assay. In this table, I=inhibitor, and numbers in parenthesis are pA2. Agonist activity are given as percent BK activity.

[2] = biological target: T2, bradykinin receptors in Guinea Pig Ileum (Cavia porcellus, UniProt O70526); experiment: Guinea Pig Ileum functional assay; assay type: cell-based
T2 construct: describes the Guinea Pig Ileum assay used to analyze the present compounds; from tissue; host or cells: isolated guinea pig ileum
T2 sequence (O70526 1-372): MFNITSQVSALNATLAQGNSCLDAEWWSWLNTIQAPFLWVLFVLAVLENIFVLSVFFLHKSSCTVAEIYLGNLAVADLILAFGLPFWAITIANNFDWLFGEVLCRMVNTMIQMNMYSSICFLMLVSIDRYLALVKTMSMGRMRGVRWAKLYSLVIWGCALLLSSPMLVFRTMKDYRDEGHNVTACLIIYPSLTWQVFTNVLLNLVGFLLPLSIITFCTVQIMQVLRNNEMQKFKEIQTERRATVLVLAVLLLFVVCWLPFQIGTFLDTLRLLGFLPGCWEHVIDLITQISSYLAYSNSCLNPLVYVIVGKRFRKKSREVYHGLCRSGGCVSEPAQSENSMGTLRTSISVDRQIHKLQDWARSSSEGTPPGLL
Excerpt: 5. Guinea Pig Ileum functional assay
Trautshold, Handbook of Expt. Pharmacol. Vol 25, Springer Verlag pp 53-55 (1970) describes the Guinea Pig Ileum assay used to analyze the present compounds. The Trautshold method was used without changes to the parameters. U.S. Pat. No. 4,693,993, at Column 14, line 10 gives a general description of data analysis for this assay.
In this table, I=inhibitor, and numbers in parenthesis are pA2. Agonist activity are given as percent BK activity.

[3] = number in parenthesis is pA2, read-out: Ileum, pA2 (I=inhibitor) (converted)
[4] = Ileum, pA2 (I=inhibitor), number in parenthesis is pA2

SMILES | Kb [1] [nM] | Kb [2, 3] [nM] | Uterus, agonist activity as percent BK activity ([1]; rat uterus, agonist activity) [%] | Kb [2, 4] [nM] | Uterus, agonist activity as percent BK activity [1] [%]
N=C(N)NCCC[C@H](NC(=O)[C@@H]1C[C@@H]2CCCC[C@@H]2N1C(=O)[C@@H](Cc1c(F)c(F)c(F)c(F)c1F)NC(=O)[C@H](CO)NC(=O)[C@@H](NC(=O)CNC(=O)[C@@H]1C[C@@H](O)CN1C(=O)[C@@H]1CCCN1C(=O)[C@H](CCCNC(=N)N)NC(=O)[C@@H](CCCNC(=N)N)NC(=O)[C@H](CCCCN)NC(=O)CCCCCCCCCCC(=O)N[C@@H](CCCCN)C(=O)N[C@H](CCCNC(=N)N)C(=O)N[C@@H](CCCNC(=N)N)C(=O)N1CCC[C@H]1C(=O)N1C[C@H](O)C[C@H]1C(=O)NCC(=O)N[C@H](C(=O)N[C@@H](CO)C(=O)N[C@H](Cc1c(F)c(F)c(F)c(F)c1F)C(=O)N1[C@H](C(=O)N[C@@H](CCCNC(=N)N)C(=O)O)C[C@@H]2CCCC[C@@H]21)C1Cc2ccccc2C1)C1Cc2ccccc2C1)C(=O)O [Compound B10158, αDDD-(Lys-Darg-Arg-Pro-Hyp-Gly-Igl-Ser-Df5f-Oic-Arg)2] | 3.16 | 10 | – | – | –
N=C(N)NCCC[C@@H](N)C(=O)N[C@@H](CCCNC(=N)N)C(=O)N1CCC[C@H]1C(=O)N1C[C@H](O)C[C@H]1C(=O)NCC(=O)N[C@H](C(=O)N[C@@H](CO)C(=O)N[C@H](Cc1c(F)c(F)c(F)c(F)c1F)C(=O)N[C@H](C(=O)N[C@@H](CCCNC(=N)N)C(=O)O)C1Cc2ccccc2C1)C1Cc2ccccc2C1 [Compound B10056, DArg-Arg-Pro-Hyp-Gly-Igl-Ser-Df5f-Igl-Arg] | – | – | 9.5 | 10 | –
N=C(N)NCCC[C@H](NC(=O)[C@@H]1C[C@@H]2CCCC[C@@H]2N1C(=O)[C@@H](Cc1c(F)c(F)c(F)c(F)c1F)NC(=O)[C@H](CO)NC(=O)[C@@H](NC(=O)CNC(=O)[C@@H]1C[C@@H](O)CN1C(=O)[C@@H]1CCCN1C(=O)[C@H](CCCNC(=N)N)NC(=O)[C@@H](CCCNC(=N)N)NC(=O)C12CC3CC(CC(C3)C1)C2)C1Cc2ccccc2C1)C(=O)O [Compound B10154, Aca-DArg-Arg-Pro-Hyp-Gly-Igl-Ser-Df5f-Oic-Arg] | 6.31 | 12.6 | – | – | –
N=C(N)NCCC[C@@H](N)C(=O)N[C@@H](CCCNC(=N)N)C(=O)N1CCC[C@H]1C(=O)N1C[C@H](O)C[C@H]1C(=O)NCC(=O)N[C@@H](Cc1cccs1)C(=O)N[C@@H](CO)C(=O)N1Cc2ccccc2C[C@@H]1C(=O)N[C@@H](Cc1c(F)c(F)c(F)c(F)c1F)C(=O)N[C@@H](CCCNC(=N)N)C(=O)O [Compound B10168, DArg-Arg-Pro-Hyp-Gly-Thi-Ser-DTic-f5f-Arg] | – | 3160 | – | – | 4
CC(C)C[C@H](NC(=O)[C@@H](Cc1c(F)c(F)c(F)c(F)c1F)NC(=O)[C@H](CO)NC(=O)[C@H](Cc1cccs1)NC(=O)CNC(=O)[C@@H]1C[C@@H](O)CN1C(=O)[C@@H]1CCCN1C(=O)[C@H](CCCNC(=N)N)NC(=O)[C@H](N)CCCNC(=N)N)C(=O)N[C@@H](CCCNC(=N)N)C(=O)O [Compound B10172, DArg-Arg-Pro-Hyp-Gly-Thi-Ser-Df5f-Leu-Arg] (H-[dR]RP[Hyp]G[2Thi]S[dPhe(F5)]LR-OH; N-terminus and C-terminus assumed) | 5.01 | 50.1 | – | – | –
N=C(N)NCCC[C@@H](N)C(=O)N[C@@H](CCCNC(=N)N)C(=O)N1CCC[C@H]1C(=O)N1C[C@H](O)C[C@H]1C(=O)NCC(=O)N[C@H](C(=O)N[C@@H](CO)C(=O)N[C@H](Cc1c(F)c(F)c(F)c(F)c1F)C(=O)N(CC(=O)N[C@@H](CCCNC(=N)N)C(=O)O)C1CCCCCC1)C1Cc2ccccc2C1 [Compound B10206, DArg-Arg-Pro-Hyp-Gly-Igl-Ser-Df5f-Nc7G-Arg] | 1.26 | 15.8 | – | – | –
CC(C)C[C@H](NC(=O)[C@@H](Cc1c(F)c(F)c(F)c(F)c1F)NC(=O)[C@H](CO)NC(=O)[C@@H](NC(=O)CNC(=O)[C@@H]1C[C@@H](O)CN1C(=O)[C@@H]1CCCN1C(=O)[C@H](CCCNC(=N)N)NC(=O)[C@H](N)CCCNC(=N)N)C1Cc2ccccc2C1)C(=O)N[C@@H](CCCNC(=N)N)C(=O)O [Compound B10174, DArg-Arg-Pro-Hyp-Gly-Igl-Ser-Df5f-Leu-Arg] (H-[dR]RP[Hyp]G[Igl]S[dPhe(F5)]LR-OH; N-terminus and C-terminus assumed) | 7.94 | 6.31 | – | – | –
N=C(N)NCCC[C@@H](N)C(=O)N[C@@H](CCCNC(=N)N)C(=O)N1CCC[C@H]1C(=O)N1C[C@H](O)C[C@H]1C(=O)NCC(=O)N[C@@H](Cc1c(F)c(F)c(F)c(F)c1F)C(=O)N[C@@H](CO)C(=O)N[C@@H](C(=O)N1[C@H](C(=O)N[C@@H](CCCNC(=N)N)C(=O)O)C[C@@H]2CCCC[C@@H]21)C1Cc2ccccc2C1 [Compound B10164, DArg-Arg-Pro-Hyp-Gly-f5f-Ser-DIgl-Oic-Arg] | 10 | 63.1 | – | – | –
N=C(N)NCCC[C@@H](N)C(=O)N[C@@H](CCCNC(=N)N)C(=O)N1CCC[C@H]1C(=O)N[C@H](C(=O)NCC(=O)N[C@H](C(=O)N[C@@H](CO)C(=O)N[C@H](Cc1c(F)c(F)c(F)c(F)c1F)C(=O)N1[C@H](C(=O)N[C@@H](CCCNC(=N)N)C(=O)O)C[C@@H]2CCCC[C@@H]21)C1Cc2ccccc2C1)C1Cc2ccccc2C1 [Compound B10214, DArg-Arg-Pro-Igl-Gly-Igl-Ser-Df5f-Oic-Arg] | 6.31 | 7.94 | – | – | –
N=C(N)NCCC[C@H](NC(=O)[C@@H]1C[C@@H]2CCCC[C@@H]2N1C(=O)[C@@H](Cc1c(F)c(F)c(F)c(F)c1F)NC(=O)[C@H](CO)NC(=O)[C@@H](NC(=O)CNC(=O)[C@@H]1C[C@@H](O)CN1C(=O)[C@@H]1CCCN1C(=O)[C@H](CCCNC(=N)N)NC(=O)[C@@H](CCCNC(=N)N)NC(=O)CN(CCCNC(=N)N)CCCNC(=N)N)C1Cc2ccccc2C1)C(=O)O [Compound B10156, Gun2-bApg-DArg-Arg-Pro-Hyp-Gly-Igl-Ser-Df5f-Oic-Arg] | 5.01 | 12.6 | – | – | –
N=C(N)NCCC[C@H](NC(=O)[C@@H]1C[C@@H]2CCCC[C@@H]2N1C(=O)[C@@H](Cc1c(F)c(F)c(F)c(F)c1F)NC(=O)[C@H](CO)NC(=O)[C@H](Cc1cccs1)NC(=O)CNC(=O)[C@@H]1CCCN1C(=O)[C@@H]1CCCN1C(=O)[C@H](CCCNC(=N)N)NC(=O)[C@@H](CCCNC(=N)N)NC(=O)[C@H](CCCCN)NC(=O)CCCCCCCCCCC(=O)N[C@@H](CCCCN)C(=O)N[C@H](CCCNC(=N)N)C(=O)N[C@@H](CCCNC(=N)N)C(=O)N1CCC[C@H]1C(=O)N1CCC[C@H]1C(=O)NCC(=O)N[C@@H](Cc1cccs1)C(=O)N[C@@H](CO)C(=O)N[C@H](Cc1c(F)c(F)c(F)c(F)c1F)C(=O)N1[C@H](C(=O)N[C@@H](CCCNC(=N)N)C(=O)O)C[C@@H]2CCCC[C@@H]21)C(=O)O [Compound B10118, αDDD-(Lys-DArg-Arg-Pro-Pro-Gly-Thi-Ser-Df5f-Oic-Arg)2] | 7.94 | 5.01 | – | – | –
N=C(N)NCCC[C@@H](N)C(=O)N[C@@H](CCCNC(=N)N)C(=O)N1CCC[C@H]1C(=O)N1C[C@H](O)C[C@H]1C(=O)NCC(=O)N[C@H](C(=O)N[C@@H](CO)C(=O)N[C@H](Cc1c(F)c(F)c(F)c(F)c1F)C(=O)N[C@@H](Cc1cccs1)C(=O)N[C@@H](CCCNC(=N)N)C(=O)O)C1Cc2ccccc2C1 [Compound B10058, DArg-Arg-Pro-Hyp-Gly-Igl-Ser-Df5f-Thi-Arg] | 6.31 | 12.6 | – | – | –
N=C(N)NCCC[C@@H](N)C(=O)N[C@@H](CCCNC(=N)N)C(=O)N1CCC[C@H]1C(=O)N1C[C@H](O)C[C@H]1C(=O)NCC(=O)N[C@H](C(=O)N[C@@H](CO)C(=O)N[C@H](Cc1c(F)c(F)c(F)c(F)c1F)C(=O)N[C@@H](Cc1c(F)c(F)c(F)c(F)c1F)C(=O)N[C@@H](CCCNC(=N)N)C(=O)O)C1Cc2ccccc2C1 [Compound B10232, DArg-Arg-Pro-Hyp-Gly-Igl-Ser-Df5f-f5f-Arg] | 7.94 | 20 | – | – | –
N=C(N)NCCC[C@@H](N)C(=O)N[C@@H](CCCNC(=N)N)C(=O)N1CCC[C@H]1C(=O)N1C[C@H](O)C[C@H]1C(=O)NCC(=O)N[C@H](C(=O)N[C@@H](CO)C(=O)N[C@H](Cc1c(F)c(F)c(F)c(F)c1F)C(=O)N(CC(=O)N[C@@H](CCCNC(=N)N)C(=O)O)C1CCCCC1)C1Cc2ccccc2C1 [Compound B10112, DArg-Arg-Pro-Hyp-Gly-Igl-Ser-Df5f-NchG-Arg] | – | – | 21 | 25.1 | –
